Measurements taken from article PMC2770649 (Nucleic Acids Research, 2009).

Columns and labels:
human DNA pol ι = target: T1, human DNA pol ι (Homo sapiens, UniProt Q9UNA4); test: Reporter-strand displacement assay, 1536-well format, pol ι; type: biochemical; conditions: IC50 against pol ι, approximate value
T1 sequence (Q9UNA4 1-740): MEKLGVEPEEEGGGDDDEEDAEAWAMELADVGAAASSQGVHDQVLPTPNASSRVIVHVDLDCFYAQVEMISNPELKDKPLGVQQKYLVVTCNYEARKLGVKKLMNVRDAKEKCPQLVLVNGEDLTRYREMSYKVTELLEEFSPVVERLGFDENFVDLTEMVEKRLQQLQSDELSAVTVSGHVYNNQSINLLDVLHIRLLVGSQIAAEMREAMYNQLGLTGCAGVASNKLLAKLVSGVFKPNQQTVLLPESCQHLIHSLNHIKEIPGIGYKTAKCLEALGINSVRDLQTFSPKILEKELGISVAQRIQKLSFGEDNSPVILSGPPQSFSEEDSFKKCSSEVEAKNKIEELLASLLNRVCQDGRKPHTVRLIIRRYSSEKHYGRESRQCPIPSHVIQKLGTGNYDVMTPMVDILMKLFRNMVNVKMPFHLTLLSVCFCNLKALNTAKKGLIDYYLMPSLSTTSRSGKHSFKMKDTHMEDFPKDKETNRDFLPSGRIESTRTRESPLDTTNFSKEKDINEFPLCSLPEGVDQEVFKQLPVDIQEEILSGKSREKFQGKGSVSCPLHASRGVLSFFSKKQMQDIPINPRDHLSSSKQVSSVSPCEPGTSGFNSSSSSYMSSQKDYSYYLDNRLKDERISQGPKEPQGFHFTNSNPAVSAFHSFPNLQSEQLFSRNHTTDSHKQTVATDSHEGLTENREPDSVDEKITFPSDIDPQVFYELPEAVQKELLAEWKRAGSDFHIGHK

human DNA pol β = human DNA pol β (Homo sapiens, UniProt P06746); test: Reporter-strand displacement assay, 1536-well format, pol β; type: biochemical; conditions: IC50 against pol β, approximate value

IC50 (human DNA pol ι) | IC50 (human DNA pol β) | Structure (SMILES)
~90 nM | ~20 nM | O=c1oc2c(O)c(O)cc3c(=O)oc4c(O)c(O)cc1c4c23 [Ellagic acid]
~90 nM | ~20 nM | O=C(O)C1=CC(=C(c2ccc(O)c(C(=O)O)c2)c2ccc(O)c(C(=O)O)c2)C=CC1=O [Aurintricarboxylic acid]
